Earlier results as cited in PMC4621754, “Parasitic diarrheal disease: drug development and targets” (Frontiers in Microbiology, 2015).
Read-outs that look alike come from different tables or passages of the source.

Tests used:
E. histolytica PPi-PFK = tested on: E. histolytica PPi-PFK; set-up: method as in Reeves et al., 1974, 1976; conditions: ref Reeves et al., 1974, 1976
tubulin = tested on: tubulin; set-up: method as in Valdez et al., 2002; conditions: ref Valdez et al., 2002
[1] = tested on: Encephalitozoon spp. and E. bieneusi; set-up: method as in Bacchi and Weiss, 2004; conditions: in vitro; ref Bacchi and Weiss, 2004
[2] = tested on: methionine aminopeptidase type 2(MetAP2); set-up: method as in Molina et al., 2002; conditions: E. cuniculi; non-competitive, irreversible; ref Molina et al., 2002
B. hominis [3] = tested on: B. hominis; set-up: method as in Nasirudeen et al., 2004; conditions: ref Nasirudeen et al., 2004
I. belli = conditions: for cure of I. belli induced diarrhea: ref Trier et al., 1974, Syrkis et al., 1975, Butler and De Boer, 1981, Weiss et al., 1988
human cells = conditions: ref Bendesky et al., 2002
B. hominis [4] = tested on: B. hominis; set-up: method as in Van Hellemond et al., 2013; conditions: in comparison to metronidazole; ref Van Hellemond et al., 2013
E. intestinalis [5] = tested on: E. intestinalis; set-up: method as in Menotti et al., 2005; Pozio and Morales, 2005; conditions: tissue culture, ref Menotti et al., 2005, Pozio and Morales
E. intestinalis [6] = tested on: E. intestinalis; set-up: method as in Didier et al., 2006; conditions: in vitro; ref Didier et al., 2006
Carbamate kinase = tested on: Carbamate kinase; set-up: method as in Galkin et al., 2014; conditions: ref Galkin et al., 2014
giardiasis = tested on: giardiasis; set-up: method as in Galkin et al., 2014; conditions: mice; ref Galkin et al., 2014
cryptosporidiosis = tested on: cryptosporidiosis; set-up: method as in Mead, 2002; Gargala, 2008; conditions: ref Mead, 2002, Gargala, 2008
[7] = set-up: method as in Diaz et al., 2003; conditions: intestinal infection caused by C. cayetanensis; ref Diaz et al., 2003
microsporidia = tested on: microsporidia; set-up: method as in Didier et al., 2005; conditions: ref Didier et al., 2005
E. intestinalis [8] = conditions: ref John et al., 2005
[9] = tested on: Acyl-coenzyme-A synthetases; set-up: method as in Guo et al., 2014; conditions: cryptosporidial infection in mice; ref Guo et al., 2014

## O=P(O)(O)C(O)(Cn1ccnc1)P(=O)(O)O [CGP42446A]
E. histolytica PPi-PFK
  inhibition of PFK in E. histolytica: good inhibitors

## S=c1[nH]c2ccc(Cl)cc2[nH]1 [Compound 36, 5(6)-chloro-1H-benzimidazole-2-(3H)-thione]
E. histolytica; ref Valdez et al., 2002
  IC50: 5 nM
G. lamblia; in vitro, ref Valdez et al., 2002
  IC50: 5 nM
tubulin
  tubulin polymerization: inhibits tubulin polymerization

## CC(=O)Oc1ccccc1C(=O)Nc1nc2ccc([N+](=O)[O-])cc2s1 [Compound 39, 2-{[(6-Nitro-1,3-benzothiazol-2-yl)amino]carbonyl}phenyl acetate]
E. histolytica; ref Navarrete-Vazquez et al., 2011
  IC50: 297 nM
G. intestinalis; in vitro, ref Navarrete-Vazquez et al., 2011
  IC50: 3520 nM

## COC(=O)Nc1ncc([N+](=O)[O-])s1 [Compound 68, methyl 5-nitro-1,3-thiazol-2-ylcarbamate]
G. intestinalis; ref Nava-Zuazo et al., 2014
  IC50: 10 nM

## CCOC(=O)C(=O)Nc1ncc([N+](=O)[O-])s1 [Compound 69, ethyl [(5-nitro-1,3-thiazol-2-yl)amino](oxo)acetate]
G. intestinalis; ref Nava-Zuazo et al., 2014
  IC50: 6410 nM

## CO[C@@H]1[C@H](OC(=O)/C=C/C=C/C=C/C=C/C(=O)O)CC[C@]2(CO2)[C@H]1[C@@]1(C)O[C@@H]1CC=C(C)C [Fumagillin]
[1]
  activity against Encephalitozoon spp. and E. bieneusi: potent
[2]
  MetAP2 inhibition: potent inhibitor

## Cc1ncc([N+](=O)[O-])n1CCO [Metronidazole]
B. hominis [3]
  programmed cell death: induces programmed cell death
I. belli
  cure of I. belli induced diarrhea: cure the I. belli induced diarrhea but to lesser extent
Human cells
  genotoxicity: genotoxic

## NC[C@@H]1O[C@H](O[C@H]2[C@@H](O)[C@H](O[C@@H]3[C@@H](O)[C@H](N)C[C@H](N)[C@H]3O[C@H]3O[C@H](CO)[C@@H](O)[C@H](O)[C@H]3N)O[C@@H]2CO)[C@H](N)[C@@H](O)[C@@H]1O [Paramomycin, paromomycin]
B. hominis [4]
  performance against B. hominis infections: superior performance in comparison to metronidazole

## CC(C)c1nc(CN(C)C(=O)N[C@H](C(=O)N[C@@H](Cc2ccccc2)C[C@H](O)[C@H](Cc2ccccc2)NC(=O)OCc2cncs2)C(C)C)cs1 [Ritonavir]
E. intestinalis [5]
  growth of E. intestinalis: inhibited the growth

## CO[C@@H]1[C@H](OC(=O)NC(=O)CCl)CC[C@]2(CO2)[C@H]1[C@@]1(C)O[C@@H]1CC=C(C)C [TNP-470]
E. intestinalis [6]
  inhibition of E. intestinalis replication: more than 70%

## CCN(CC)C(=S)SSC(=S)N(CC)CC [disulfiram]
G. lamblia; ref Galkin et al., 2014
  effect on trophozoites: kills the trophozoites
Carbamate kinase
  carbamate kinase inhibition: inhibits this enzyme
giardiasis
  cure of giardiasis: cure of giardiasis in mice

## CC(C)(C)NC(=O)[C@@H]1CN(Cc2cccnc2)CCN1C[C@@H](O)C[C@@H](Cc1ccccc1)C(=O)N[C@H]1c2ccccc2C[C@H]1O [indinavir]
E. intestinalis [5]
  growth of E. intestinalis: inhibited the growth

## CC(=O)Oc1ccccc1C(=O)Nc1ncc([N+](=O)[O-])s1 [nitazoxanide]
cryptosporidiosis; immunocompetent patients
  efficacy in cryptosporidiosis: effective
cryptosporidiosis; immunocompromised patients
  efficacy in cryptosporidiosis: ineffective
[7]
  side effects: no severe side effects

## CCn1cc(C(=O)O)c(=O)c2cc(F)c(N3CCNCC3)cc21 [norfloxacin]
microsporidia
  antimicrosporidial activity: more than gatifloxacin (6), lomefloxacin (7), moxifloxacin (8), and nalidixic acid (9)

## CC1COc2c(N3CCN(C)CC3)c(F)cc3c(=O)c(C(=O)O)cn1c23 (stereo not drawn) [ofloxacin]
microsporidia
  antimicrosporidial activity: more than gatifloxacin (6), lomefloxacin (7), moxifloxacin (8), and nalidixic acid (9)

## CO[C@@H]1C(=O)CC[C@]2(CO2)[C@@]1(O)[C@@]1(C)O[C@@H]1CC=C(C)C [ovalicin]
E. intestinalis [6]
  inhibition of E. intestinalis replication: more than 70%

## O=[O+][O-] [ozone]
E. intestinalis [8]
  killing of E. intestinalis: kills

## CCS(=O)(=O)CCn1c([N+](=O)[O-])cnc1C [tinidazole]
I. belli
  cure of I. belli induced diarrhea: cure the I. belli induced diarrhea but to lesser extent

## CCC/C=C/C/C=C/C=C/C=N/NN=O [triacsin C]
[9]
  inhibition of acyl-coenzyme-A synthetases: inhibited

## sirimamycin
I. belli; when pyrimethamine-sulfadoxine fails, AIDS patients, ref Ferguson et al., 1980
  efficacy in I. belli intestinal infection: effective
